According to patent US10920265B2, “Compounds and methods for detection of enzymes that remove methyl succinyl groups from epsilon-amino lysine moieties” (Enzo Life Sciences, Inc., priority 2011, dated 2021):
*: point of attachment. AMC = Cc1cc(=O)oc2cc(N*)ccc12

Tests used:
Test in all cases: Sirtuin activity with fluorogenic lysyl substrates
Format in all cases: biochemical
Conditions in all cases: 50 μM substrate, 500 μM NAD^+
SIRT7 = biological target: T1, SIRT7 (Homo sapiens, UniProt Q9NRC8)
T1 construct: purchased BPS Bioscience 50018
T1 sequence (Q9NRC8 1-400): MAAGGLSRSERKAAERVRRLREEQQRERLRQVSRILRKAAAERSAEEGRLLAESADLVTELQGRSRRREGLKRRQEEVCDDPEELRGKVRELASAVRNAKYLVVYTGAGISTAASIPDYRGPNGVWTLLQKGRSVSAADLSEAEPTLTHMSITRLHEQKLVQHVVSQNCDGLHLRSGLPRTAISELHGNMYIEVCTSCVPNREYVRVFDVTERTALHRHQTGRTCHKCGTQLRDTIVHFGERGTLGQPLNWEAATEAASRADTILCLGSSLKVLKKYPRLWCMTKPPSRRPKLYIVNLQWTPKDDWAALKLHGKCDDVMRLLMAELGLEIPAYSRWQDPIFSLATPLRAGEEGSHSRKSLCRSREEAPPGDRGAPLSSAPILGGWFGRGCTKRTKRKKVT
Protocol: (§1) The Ac-Lys(Succ.)-AMC substrate was tested for activity with recombinant preparations of human HDACs 1-11, SIRTs 1-4, 6 and 7, a complex of HDAC3 with a fragment of the activating protein NCOR1 and with HeLa nuclear extract, a rich source of active HDACs in their native multiprotein complexes.
(§2) Enzyme and extract catalog products obtained from ENZO Life Sciences included: HDAC1 (Cat. # BML-SE456), HDAC2 (Cat. # BML-SE500), HDAC3 (Cat. # BML-SE507), HDAC3/NCOR1 Complex (Cat. # BML-SE515), HDAC6 (Cat. # BML-SE508), HDAC8 (Cat. # BML-SE145), HDAC10 (Cat. # BML-SE559), HDAC11 (Cat. # BML-SE560), SIRT1 (Cat. # BML-SE239), SIRT2 (Cat. # BML-SE251), SIRT3 (Cat. # BML-SE270), SIRT5 (Cat. # BML-SE555), HeLa Nuclear Extract (Cat. # BML-KI140), Trypsin (“Fluor de Lys Developer”, 80 mg/ml bovine trypsin in 1 mM HCl, Cat. # BML-KI105 or “Fluor de Lys Developer II”, 80 mg/ml bovine trypsin in 1 mM HCl, Cat. # BML-KI176). […] Enzymes obtained from BPS Bioscience, San Diego, Calif. included: human recombinants SIRT4 (Cat. #50015), SIRT6 (Cat. #50017), SIRT7 (Cat. #50018). HeLa whole cell extract was obtained from HeLa S3 cells (American Type Culture Collection) grown in a medium of MEM/10% fetal bovine serum (FBS) as follows: 1) 9×10^6 cells were suspended by trypsinization, followed by a phosphate buffered saline (PBS) rinse and addition of MEM/10% FBS (1.5 mL) to eliminate trypsin before transfer to a 15 mL conical tube; 2) cells were sedimented by a low speed centrifugation, gently resuspended in PBS and sedimented again and supernatant removed; 3) lysis was induced by resuspension in 0.8 mL 50 mM Tris/HCl, pH 8.0 with the non-denaturing detergent NP-40 (0.5%), placement on ice and brief vortexing every 5 min. for 30 min.; 4) 100 μl of a concentrated salt solution in the same buffer was added in order to bring the final buffer composition to 50 mM Tris/C1, pH 8.0, 137 mM NaCl, 2.7 mM KCl, 1 mM MgCl2, 0.5% NP-40; 5) particulate matter was cleared by centrifugation and the cleared lysate supernatant transferred to a 1.5 mL Eppendorf tube and stored on ice until use in activity assays.
(§3) Assays were performed at 37° C., according to the manufacturer's instructions for the “SIRT1 Fluorometric Drug Discovery Kit” from Enzo Life Sciences (ELS) (Cat. # BML-AK555), with exceptions described as follows. Where indicated in figures and text, SIRT1 enzyme was replaced with another enzyme or extract and the “Fluor de Lys-SIRT1 Substrate” (Ac-Arg-His-Lys-Lys(Ac)-AMC; ELS Cat. # BML-KI-177) was replaced with another acetylated, succinylated or trifluoroacetylated substrate.

SIRT3 = biological target: T2, SIRT3 (Homo sapiens, UniProt Q9NTG7)
T2 construct: purchased ENZO Life Sciences BML-SE270
T2 sequence (Q9NTG7 1-399): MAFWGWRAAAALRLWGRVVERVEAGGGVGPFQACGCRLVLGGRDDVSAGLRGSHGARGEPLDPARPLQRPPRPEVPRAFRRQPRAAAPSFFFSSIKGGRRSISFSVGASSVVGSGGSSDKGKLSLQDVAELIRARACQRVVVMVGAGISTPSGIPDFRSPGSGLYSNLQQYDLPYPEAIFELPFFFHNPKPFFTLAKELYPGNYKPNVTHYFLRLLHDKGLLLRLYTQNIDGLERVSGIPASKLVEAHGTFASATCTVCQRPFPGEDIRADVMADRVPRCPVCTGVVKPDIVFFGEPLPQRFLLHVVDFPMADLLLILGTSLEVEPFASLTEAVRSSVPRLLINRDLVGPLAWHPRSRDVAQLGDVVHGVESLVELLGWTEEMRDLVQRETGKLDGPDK
Protocol: as §1, §2, §3

SIRT1 = biological target: T3, SIRT1 (Homo sapiens, UniProt Q96EB6)
T3 construct: purchased ENZO Life Sciences BML-SE239
T3 sequence (Q96EB6 1-747): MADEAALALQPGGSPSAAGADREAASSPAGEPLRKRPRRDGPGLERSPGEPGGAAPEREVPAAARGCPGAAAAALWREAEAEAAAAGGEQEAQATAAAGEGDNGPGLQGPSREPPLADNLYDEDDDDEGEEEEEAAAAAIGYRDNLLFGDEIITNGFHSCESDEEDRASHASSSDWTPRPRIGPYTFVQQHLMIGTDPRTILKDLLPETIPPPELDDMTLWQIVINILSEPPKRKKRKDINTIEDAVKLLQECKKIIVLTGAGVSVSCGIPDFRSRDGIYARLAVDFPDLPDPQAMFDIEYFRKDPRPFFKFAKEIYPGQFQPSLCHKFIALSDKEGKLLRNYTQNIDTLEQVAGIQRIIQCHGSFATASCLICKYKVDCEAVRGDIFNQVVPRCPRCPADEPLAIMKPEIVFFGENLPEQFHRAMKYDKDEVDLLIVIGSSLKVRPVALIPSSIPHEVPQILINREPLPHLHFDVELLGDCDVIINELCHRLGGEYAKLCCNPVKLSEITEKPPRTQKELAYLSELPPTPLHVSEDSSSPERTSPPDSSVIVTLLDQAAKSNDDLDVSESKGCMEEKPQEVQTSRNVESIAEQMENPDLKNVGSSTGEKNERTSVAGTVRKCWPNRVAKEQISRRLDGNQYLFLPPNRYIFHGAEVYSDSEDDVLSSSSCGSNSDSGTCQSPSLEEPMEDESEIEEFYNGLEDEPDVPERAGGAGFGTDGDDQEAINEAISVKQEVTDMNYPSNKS
Protocol: as §1, §2, §3

Compound	Activity (pmol/min/μg) (SIRT7)	Activity (SIRT3) [pmol/min/µg]	Activity (SIRT1) [pmol/min/µg]	Activity (pmol/min/μg) (SIRT1)	Activity (pmol/min/μg) (SIRT3)
COC(=O)CCC(=O)NCCCC[C@H](NC(C)=O)C(=O)Nc1ccc2c(C)cc(=O)oc2c1 [Compound 5, N—(N^α-acetyl-L-Lysine(N^ε-methyl succinyl))-AMC]	Undetectable	0.002	0.002	–	–
Ac-Arg-His-Lys-Lys(ε-acetyl)-AMC (Ac-RHKK(Ac)-{AMC}; SMILES CC(=O)NCCCC[C@H](NC(=O)[C@H](CCCCN)NC(=O)[C@H](Cc1c[nH]cn1)NC(=O)[C@H](CCCNC(=N)N)NC(C)=O)C(=O)Nc1ccc2c(C)cc(=O)oc2c1) [Ac-RHKK(Ac)-AMC, p53 peptide fluorogenic deacetylase substrate, Cat. # BML-KI177, reference compound]	–	–	–	Ac-RHKK(Ac)-AMC/64 pmol/min/μg	–
CCCCCCCCCCCCCC(=O)NCCCC[C@H](NC(C)=O)C(=O)Nc1ccc2c(C)cc(=O)oc2c1 [Compound 4, N—(N^α-acetyl-L-Lysine(N^ε-myristoyl))-AMC]	Undetectable	0.012	0.043	–	–
CC(=O)NCCCCC(NC(C)=O)C(=O)Nc1ccc2c(C)cc(=O)oc2c1 (stereo not shown) [Ac-Lys(Ac.)-AMC, Ac-Lys(ε-acetyl)-AMC, reference compound]	Undetectable	0.125	0.391	–	–
CC(=O)N[C@@H](CCCCNC(=O)CCC(=O)O)C(=O)Nc1ccc2c(C)cc(=O)oc2c1 [Compound 1, N—(N^α-acetyl-L-Lysine(N^ε-succinyl))-AMC]	Undetectable	–	–	Undetectable	Undetectable
